# Assay results: patent US4886886A, “Substituted 1,3,4,9-tetrahydropyrano[3,4-b]indole-1-acetic acids” (American Home Products Corporation, priority 1988, dated 1989)
# Experiments:
# [1] = tested on: Adjuvant Edema; experiment: Preventative Adjuvant Edema; format: in vivo, Male Sprague Dawley rats; settings: rat, given days 0, 1 and 2, edema volume on day 3; for Preventative Adjuvant Edema, percent inhibition: 25 mg/kg p.o.
# Procedure: This test is a primary screen for anti-inflammatory drugs.
# Male Sprague Dawley rats (180-200 g) are used. The animals have free access to water but food is withdrawn 18 hours before testing.
# Drug Preparations and Administration:
# Freund's complete adjuvant is prepared by suspending 5 mg of killed and dried Mycobacterium butyricum (Difco) in 1 mL mineral oil. The test compounds are dissolved, or suspended in 0.5% Tween 80 in distilled water according to their solubility. For primary screening all drugs are administered by gastric lavage at the arbitrary dosage of 25 mg/kg, p.o. in a volume of 0.5 mL/100 g body weight to groups of 10 animals.
# The method is essentially that described by Wax et al, J. Pharmacol. Exp. Ther., 192, 166-171 (1975). Groups of rats are injected intradermally in the left hind paw with 0.1 mL of Freund's complete adjuvant. The test compound or vehicle is administered immediately before the adjuvant, 24 hours and 48 hours after the adjuvant (days 0, 1 and 2). The injected hind paw volume is measured before the injection of adjuvant and 24 hrs. after the last drug administration (day 3) by means of a plethysmometer (Buxco Electronics Inc.). The difference between the hind paw volume on day 0 and day 3 represents the edema volume. Etodolac (25 mg/kg, p.o.) is included as a positive control.
# The mean edema volume (expressed as mL±SEM) is calculated for each group and the percentage protection conferred by the drug is calculated: [formula] where c is the mean edema volume for the vehicle-treated (0.5% Tween 80 in distilled water) controls and t is the mean edema volume for the drug treated group.
# [2] = tested on: Phenylbenzoquinone-induced Writhing; experiment: Drug Effects on Phenylbenzoquinone-induced Writhing in Mice; format: in vivo, Male Swiss albino mice; settings: mouse, 60 min before PBQ
# Procedure: A further test used to determine the utility of the compounds of the present invention is designated: Drug Effects on Phenylbenzoquinone-induced Writhing in Mice
# The objective of this test is to determine the ability of test drugs to inhibit the nociceptive (pain) response of mice injected with a chemical irritant. This test is a primary screen for both peripheral and centrally acting analgesic drugs.
# Male Swiss albino mice (15-25 g). The animals are fasted for 18 hours prior to use but have free access to water.
# (§1) Drug Preparation and Administration:
# Drugs are dissolved or suspended according to their solubility in 0.5% Tween 80 in distilled water. They are administered by gastric gavage in a volume of 5 mL/kg. For primary screening all drugs are administered at the arbitary dosage of 25 mg/kg, p.o. to a group of 10 mice.
# A modification of the method of Siegmund et al, Proc. Soc. Exp. Biol. Med., 95, 729-731 […] is used. Groups of 5 mice are dosed with the test compound or vehicle control. Sixty minutes later the animals are injected i.p. with 0.3 mL/20 g body weight of a 0.02% solution of phenylbenzoquinone (PBQ; 2-phenyl-1,4-benzoquinone) and placed in individual observation boxes. The number of writhing or abdominal squirming movements made by each mouse during the following 15 min. period is counted. The experiment is repeated with another group of 5 mice and the mean number of writhes per mouse for a group of 10 mice is calculated.
# Drug treated and vehicle-treated control groups are compared and the percentage protection conferred by the drug is calculated: [formula]
# where c=mean number of writhes in the control group
# where t=mean number of writhes in the test drug group
# [3] = tested on: reaction of rats to painful stimulation applied to an inflamed paw; experiment: Randall Selitto Test in the Rat; format: in vivo, Male Sprague Dawley rats; settings: po, by gastric gavage, 24 hours after adjuvant, pain threshold 1 hour later, read-out: Randall Selitto, ED50 (dose which causes analgesia in 50% of the animals)
# Description: An additional test used to determine the utility of the compounds of the present invention is designated: Randall Selitto Test in the Rat
# The objective of this test is to assess the potency of peripheral and central acting drugs in inhibiting the reaction of rats to painful stimulation applied to an inflamed paw.
# Male Sprague Dawley rats (180-200 g) are used. The animals are fasted overnight prior to drug administration.
# as §1
# Freund's Complete Adjuvant (FCA) is prepared by suspending 5 mg killed and dried mycobacterium butyricum (Difco) in 1 mL mineral oil. The test compounds are dissolved or suspended in 0.5% Tween 80 in distilled water according to their solubility. They are administered by gastric gavage in a volume of 0.5 mL/100 g body weight to groups of 10 animals.
# Ten rats are used per group. The method is essentially that described by Randall and Selitto, Arch. Int. Pharmacodyn. […] The force is continuously monitored by a pointer moving along a linear scale and is measured in grams. […] The pain threshold (vocalization) is determined 1 hour later in the inflamed paw of the treated and control groups. […]
# Each animal which has a reading 1.5 times greater than the mean reading of the control-group will be considered as responsive (having an analgesic effect) to treatment. The number of animals showing an analgesic effect is then determined in each group. […]
smiles,measurement,setting,value
"C=CCc1cccc2c3c([nH]c12)C(CC)(CC(=O)O)OCC3C (single isomer, unassigned) [Example 3, 1-Ethyl-1,3,4,9-tetrahydro-4-methyl-8-(2-propenyl)-pyrano[3,4-b]indole-1-acetic Acid]","Preventative Adjuvant Edema, percent inhibition",[1],57 percent inhibition
same,"Phenylquinone Writhing in Mice, percent inhibition",[2]; 10 mg/kg p.o.,20 percent inhibition
"C=CCc1c(F)ccc2c3c([nH]c12)C(CC)(CC(=O)O)OCC3 (stereo not shown) [Example 1, 1-Ethyl-7-fluoro-1,3,4,9-tetrahydro-8-(2-propenyl)-pyrano[3,4-b]indole-1-acetic Acid]","Preventative Adjuvant Edema, percent inhibition",[1],83 percent inhibition
same,ED50,[3],0.7 mg/kg
same,ED50,"[2]; po, 1 h, p.o., read-out: Phenylquinone Writhing in Mice, ED50",54.7 mg/kg
"C=CCc1cccc2c3c([nH]c12)C(CC)(CC(=O)O)OCC3 (stereo not shown) [Example 2, 1-Ethyl-1,3,4,9-tetrahydro-8-(2-propenyl)-pyrano[3,4-b]-1-acetic Acid]",ED50,"[1]; po, 72 h, p.o.",9 mg/kg
same,"Phenylquinone Writhing in Mice, percent inhibition",[2]; 200 mg/kg p.o.,42 percent inhibition
